Experiment [1] has as its system male mice of OF1 strain. In words: Measurement of locomotor activity: determination of the doses of amisulpride. It counts as in vivo. How it is done:
The animals used in this study are male mice of OF1 strain weighing about 20 g at the start of the experiments (Charles River, France). They live in an environment whose daily lighting cycle (07:30h; 17:30h) is constant throughout the year, and the temperature is maintained at about 22° C. The mice have free access to water and food, and the experiments are performed in accordance with the international rules on ethics in animal experimentation.
The mice are placed individually in a sound-insulated plastic cage ([…]) and are exposed to a light intensity of 5 lux. The animals' movements are captured by photoelectric cells for 60 minutes and recorded by computer. The experiment starts immediately after injection of the product. In this study, the term “locomotor activity” takes into account only the horizontal movements of the animals.
A one-factor (treatment) analysis of variance (ANOVA) is used for all the behavioral tests performed, followed by a Student-Newman-Keuls test if p<0.05 in the ANOVA. In all the cases, the significance is accepted once p<0.05.
A molecule endowed with dopaminergic antagonist activity reduces locomotor activity. It is this property that is exploited in order to determine the dose after which amisulpride has dopaminergic antagonist activity in mice (i.e. an effect on the D2 and D3 post-synaptic receptors, and not on the D2 and D3 auto-receptors). […]

Experiment [2] deals with male mice of OF1 strain. In words: Behavioral sensitization to morphine (locomotor activity on D15 after morphine injection). It counts as in vivo.
Experimental: The locomotor activity is influenced by a wide diversity of factors.
The experimental protocol used may be described in the following manner:
Dose of amisulpride (AMS): 0.5 mg/kg Dose of buprenorphine (Bup): 0.1 mg/kg
The animals received from D1 to D7 either morphine or physiological saline, from Day D8 to D14 either physiological saline, or buprenorphine, amisulpride, buprenorphine and amisulpride according to the scheme:

The values that follow come from patent publication US20110039834A1, “NOVEL PHARMACEUTICAL COMPOSITIONS FOR OPTIMIZING SUBSTITUTION TREATMENTS AND EXTENDING THE PHARMACOPOEIA TO GLOBAL TREATMENT OF ADDICTIONS” (TRIMARAN LIMITED, priority 2006, published 2011).

Structures are written as SMILES. Bounds are passed on as bounds.

In the case of `CCN1CCCC1CNC(=O)c1cc(S(=O)(=O)CC)c(N)cc1OC` (stereo not shown) [amisulpride], the “effect on locomotor activity at low dose” value in the experiment with male mice of OF1 strain [1] (0.5 mg/kg) was “locomotor hyperactivity is observed”. The “dose at and above which the decrease in locomotor activity is significant” value with male mice of OF1 strain [1] (doses tested 0.5, 2, 10, 20 and 50 mg/kg, horizontal movements over 60 minutes) was at least 10 mg/kg. In the experiment on male mice of OF1 strain [2] (morphine D1 to D7, treatment between D8 and D14 (amisulpride 0.5 mg/kg, buprenorphine 0.1 mg/kg), morphine 10 mg/kg on D15), the “reduction of the behavioral sensitization to morphine” value is reported as “does not make it possible to reduce this behavioral sensitization”.

In the case of `CN1CC[C@]23c4c5ccc(O)c4O[C@H]2[C@@H](O)C=C[C@H]3[C@H]1C5` [morphine], the “behavioral sensitization on D15 relative to animals chronically treated with saline” value with male mice of OF1 strain [2] (mice chronically treated D1 to D7, locomotor activity on D15 after morphine 10 mg/kg) is listed as “show behavioral sensitization”.
